In paper PMC3627854 (Osteoporosis International, 2012):

Target: T1, IKKα (Mus musculus, UniProt Q60680)
T1 sequence (Q60680 1-745): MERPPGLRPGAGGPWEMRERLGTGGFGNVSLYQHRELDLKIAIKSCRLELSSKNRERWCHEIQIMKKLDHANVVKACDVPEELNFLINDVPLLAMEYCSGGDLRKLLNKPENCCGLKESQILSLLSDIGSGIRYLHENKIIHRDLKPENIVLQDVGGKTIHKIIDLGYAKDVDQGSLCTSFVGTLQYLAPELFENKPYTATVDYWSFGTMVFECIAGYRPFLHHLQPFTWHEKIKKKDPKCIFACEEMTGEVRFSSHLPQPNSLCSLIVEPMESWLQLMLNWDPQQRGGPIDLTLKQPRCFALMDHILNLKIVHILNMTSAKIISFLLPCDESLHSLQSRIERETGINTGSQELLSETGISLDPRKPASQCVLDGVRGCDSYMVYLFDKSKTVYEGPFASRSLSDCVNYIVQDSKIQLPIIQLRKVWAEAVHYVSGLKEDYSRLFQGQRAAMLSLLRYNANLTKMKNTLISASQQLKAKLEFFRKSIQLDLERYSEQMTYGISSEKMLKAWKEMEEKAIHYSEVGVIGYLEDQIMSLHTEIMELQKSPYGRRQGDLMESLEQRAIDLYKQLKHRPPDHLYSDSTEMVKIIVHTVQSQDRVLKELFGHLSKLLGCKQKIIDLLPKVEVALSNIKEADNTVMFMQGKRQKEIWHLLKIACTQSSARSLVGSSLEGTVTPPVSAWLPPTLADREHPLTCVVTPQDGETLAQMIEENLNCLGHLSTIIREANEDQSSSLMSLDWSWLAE
Assay: IKKα KinEASE FP kinase activity assay, RANKL-stimulated RAW […] cells
Assay type: cell-based

O=C1C[C@@H](O[C@@H]2O[C@H](CO)[C@@H](O)[C@H](O)[C@H]2O)CO1 [kinsenoside, 3-(R)-3-β-D-glucopyranosyloxybutanolide]
IC50: ~57.6 µM
